Experimental data from patent US11079383B2, “Diagnosis and monitoring treatment of prostate cancer” (THE GENERAL HOSPITAL CORPORATION, priority 2012, dated 2021).
Entries after “also recorded” stand apart in the source; their conditions may differ.

Key:
[1] = system: CTCs from patients with castration-sensitive prostate cancer; assay: AR signaling phenotypes in CTCs from patients with castration-sensitive metastatic prostate cancer before and after ADT (HBCTC-Chip); type: in vivo, human; conditions: for Change of CTC AR signaling phenotype after ADT: treatment-naive castration-sensitive metastatic prostate cancer patients with detectable CTCs
Method: (§1) Patients and Clinical Specimens Patients with metastatic prostate cancer receiving treatment at the Massachusetts General Hospital (MGH) were recruited according to an institutional review board (IRB) approved protocol. A total of 21 prostate cancer patients donated 10-20 mL of blood on one or more occasions for CTC analysis. A total of 21 male patients with no known diagnosis of cancer were recruited during routine visits to the MGH outpatient internal medicine clinic according to a separate IRB approved protocol. CTC capture using the ^HBCTC-Chip was performed as described (Stott S L, et al. Proc Natl Acad Sci USA 2010; 107: 18392-7), with anti-EpCAM mediated capture of cells, followed by combined staining with anti-PSA, anti-PSMA, and anti-CD45 antibodies (described in detail below).
HBCTC-Chip Blood Processing All specimens were collected into Vacutainer (Becton-Dickson) tubes containing the anticoagulant EDTA and were processed through the ^HBCTC-Chip within 6 hours of blood draw. Samples were run on the previously described microfluidic processing machine (Stott S L, et al. Proc Natl Acad Sci USA 2010; 107: 18392-7). Briefly, a 5 mL aliquot of blood was placed in an airtight conical tube on a rocker assembly, and 2-4 mL of blood were pneumatically driven through the chip at a flow rate of 1-1.5 mL/hour. […]
(§2) Immunofluorescence Staining and Automated Fluorescence Microscopy To establish and validate the immunofluorescence single cell AR signature, LNCaP cells were cultured in media containing 10% charcoal-stripped serum for 3 days followed by treatment with 1 nM R1881 or 10 μM bicalutamide for 24 hours. […] An automated upright fluorescence microscopy scanning system (BioView) fitted with a precision motorized stage and xenon arc lamp (Lumen 2000, Prior Scientific) was used to comprehensively image each CTC-chip under 10× magnification in seven z-planes. Due to inherent auto fluorescence of biological samples that can interfere with the specificity of stains in the green spectra, the negative control marker, CD45, was paired with the Alexa Fluor 488 secondary antibody. […]

[2] = system: LNCaP cells; assay: Multiparameter single cell immunofluorescence assay for AR signaling (PSA/PSMA) in LNCaP cells; type: cell-based, human; conditions: androgen-starved LNCaP cells (3 days 10% charcoal-stripped serum) treated with 1 nM R1881
Text: To achieve multiparameter single cell analysis of AR activity, an automated fluorescence microscopy scanning platform was adapted to distinctly and specifically measure four fluorescent emission spectra simultaneously. Secondary fluorophores and optical band pass filters were selected to avoid “cross-talk” between the multiple fluorescent signals that are closely located on the electromagnetic spectrum, while maximizing signal intensity. The disclosed assay for quantitative measurement of signal intensity profiles for cells stained with antibodies against PSA and PSMA was developed using a model cell system (LNCaP). […]
as §2

[3] = system: CTCs from patients with CRPC; assay: AR signaling phenotypes in CTCs from CRPC patients before and after second line hormonal therapy (HBCTC-Chip); type: in vivo, human; conditions: for Effect of second line hormonal treatment on CTC numbers and AR phenotypes: CRPC patients, ketoconazole N=1, bicalutamide N=2, abiraterone acetate N=13
Method: as §1
HBCTC-Chip Blood Processing All specimens were collected into Vacutainer (Becton-Dickson) tubes containing the anticoagulant EDTA and were processed through the ^HBCTC-Chip within 6 hours of blood draw. Samples were run on the previously described microfluidic processing machine (Stott S L, et al. Proc Natl Acad Sci USA 2010; 107: 18392-7). Briefly, a 5 mL aliquot of blood was placed in an airtight conical tube on a rocker assembly, and 2-4 mL of blood were pneumatically driven through the chip at a flow rate of 1-1.5 mL/hour. Following processing, the ^HBCTC-Chip was flushed with 2.5 mL of PBS at 2.5 mL/hour to remove nonspecifically bound cells. Isolated CTCs were then subjected to immunofluorescence staining, as described below.
Immunofluorescence Staining and Automated Fluorescence Microscopy To establish and validate the immunofluorescence single cell AR signature, LNCaP cells were cultured in media containing 10% charcoal-stripped serum for 3 days followed by treatment with 1 nM R1881 or 10 μM bicalutamide for 24 hours. Once the assays were validated in cultured cells, they were applied to cells spiked into whole blood and isolated on the CTC-Chip, to healthy donor blood samples to establish the signal intensity threshold for detection, and ultimately on primary patient samples processed through the Chip. Cells captured on the ^HBCTC-chip were fixed with 4% formaldehyde and permeabilized with 1% NP-40 in PBS. Immunofluorescence staining was performed using a rabbit polyclonal anti-PSA antibody (DAKO), a mouse monoclonal IgG1 anti-PSMA antibody (J591; N. Bander), and a mouse monoclonal IgG2a anti-CD45 antibody (Abcam), followed by appropriately matched secondary antibodies conjugated with DyLight 649 (Jackson ImmunoResearch), Alexa Fluor 555 (Invitrogen), and Alexa Fluor 488 (Invitrogen). Nuclei were stained with DAPI. An automated upright fluorescence microscopy scanning system (BioView) fitted with a precision motorized stage and xenon arc lamp (Lumen 2000, Prior Scientific) was used to comprehensively image each CTC-chip under 10× magnification in seven z-planes. Due to inherent auto fluorescence of biological samples that can interfere with the specificity of stains in the green spectra, the negative control marker, CD45, was paired with the Alexa Fluor 488 secondary antibody. This choice reduced the sensitivity of the staining assay (potentially more false negatives), but lessened the risk of false positives through natural autofluorescence. Conversely, PSA, the highest affinity antibody tested (and subsequently strongest fluorescent signal) was placed in the Cy5 channel, where the quantum efficiency of traditional monochrome CCD sensors is reduced. To successfully achieve distinct, non-overlapping fluorescent signals in four colors while maximizing the fluorescent intensity output, modified Magnetron sputter-coated filter sets were selected for the Cy3 and Cy5 spectra (Chroma). Additional filter sets for the DAPI and FITC channel were used and exposure times were optimized. All samples were subsequently imaged at predetermined exposure times. […]

[4] = system: metastatic CRPC; conditions: men with metastatic CRPC who have previously received chemotherapy; cited from earlier work

CCNC(=O)[C@@H]1CCCN1C(=O)[C@H](CCCNC(=N)N)NC(=O)[C@H](CC(C)C)NC(=O)[C@@H](CC(C)C)NC(=O)[C@H](Cc1ccc(O)cc1)NC(=O)[C@H](CO)NC(=O)[C@H](Cc1c[nH]c2ccccc12)NC(=O)[C@H](Cc1c[nH]cn1)NC(=O)[C@@H]1CCC(=O)N1 [leuprolide]
Change of CTC AR signaling phenotype after ADT [1]: transformation of CTCs from the “AR-on” (PSA+/PSMA−) phenotype to the “AR-off” (PSA−/PSMA+) phenotype
Change of CTC AR signaling phenotype after ADT ([1]; listed as ADT): transformation of the majority of CTCs from the “AR-on” to the “AR-off” phenotype within one month
Presence of CTCs after initiation of ADT ([1]; treatment-naive metastatic prostate cancer patients with detectable CTCs): complete disappearance of CTCs by 3 months

C[C@]1(O)CC[C@H]2[C@@H]3CCC4=CC(=O)CCC4=C3C=C[C@@]21C [R1881]
AR signaling phenotype (PSA/PSMA signal intensity profile) over time [2]: time-dependent progression from an initial “AR-off” (PSA−/PSMA+) to an intermediate “AR-mixed” (PSA+/PSMA+) phenotype, and finally to an “AR-on” (PSA+/PSMA−) pattern

CC(=O)O[C@H]1CC[C@@]2(C)C(=CC[C@@H]3[C@@H]2CC[C@]2(C)C(c4cccnc4)=CC[C@@H]32)C1 [abiraterone acetate]
CRPC patients with a stable percentage of AR-on CTCs after therapy ([3]; 6 of 13 patients): 46%
Effect of second line hormonal treatment on CTC numbers and AR phenotypes [3]: varying effects on CTC numbers and AR phenotypes
Change in proportion of PSA+/PSMA− AR-on CTCs in an individual CRPC patient ([3]; single patients, after initiation of therapy (FIG. 4A, FIG. 4C)): a decrease in the proportion of PSA+/PSMA− “AR-on” CTCs; also recorded: Increase in the proportion of PSA+/PSMA− “AR-on” CTCs
CRPC patients with ≥50% decline in the percentage of AR-on (PSA+/PSMA−) CTCs ([3]; within 2-5 weeks of therapy, 4 of 13 patients): 31%
CRPC patients with ≥50% increase in the percentage of AR-on CTCs ([3]; within the first 2-5 weeks of therapy, 3 of 13 patients): 23%
Overall survival [4]: increases overall survival

CC(=O)N1CCN(c2ccc(OCC3COC(Cn4ccnc4)(c4ccc(Cl)cc4Cl)O3)cc2)CC1 (centres unmarked) [ketoconazole]
Effect of second line hormonal treatment on CTC numbers and AR phenotypes [3]: varying effects on CTC numbers and AR phenotypes
